According to patent publication US6335355B1, “Crop protection products” (Syngenta Investment Corporation, priority 1995, dated 2002):
Like-named read-outs stand apart in the source and are kept apart here.

Experiments:
Erysiphe graminis = test: Action against Erysiphe graminis on barley
Protocol: A1: Action gainst Erysiphe graminis on Barley
a) Residual-protective Action Barley plants about 8 cm in height are sprayed to drip point with an aqueous spray mixture (max. 0.02% active ingredient) and are dusted 3 to 4 days later with conidia of the fungus. The infected plants are stood in a greenhouse at 22°. Fungus infestation is generally evaluated 10 days after infection.
b) Systemic Action Barley plants about 8 cm in height are watered with an aqueous spray mixture (max. 0.002% active ingredient, based on the volume of the soil). […] The plants are dusted with conidia of the fungus 3 to 4 days later. The infected plants are stood in a greenhouse at 22°. Fungus infestation is generally evaluated 10 days after infection.

[1] = tested on: Colletotrichum lagenarium; test: Action against Colletotrichum lagenarium on Cucumis sativus L./foliar application; type: in vivo
[2] = tested on: Colletotrichum lagenarium; test: Action against Colletotrichum lagenarium on Cucumis sativus L./soil application; type: in vivo
[3] = tested on: Cercospora sp. (leaf spot); test: Field test on chilli: action against Cercospora sp. (leaf spot)
Description: In a plot of land about 10 m^2 (test location: Cikampek, Java, Indonesia), chilli plants are sprayed a total of 7 times at intervals of about 7 days with 500-700 litres of spray mixture per hectare. Three days after the first spraying, the plants are infected artificially with the fungus.
Evaluation is made by assessing infestation on the leaves after the sixth spraying.

Pyricularia oryzae = type: in vivo; details: Example B11
[4] = Field test on chilli: action on crop yield; type: in vivo; details: Example B10, chillis harvested after the sixth spraying
Cercospora nicotianae = test: Action against Cercospora nicotianae on tobacco plants; type: in vivo
[5] = Example B1, 0.6 mg a.i. per liter (ppm)
[6] = Example B1, 2 mg a.i. per liter (ppm)
[7] = Example B1, 6 mg a.i. per liter (ppm)
[8] = Example B3(a), 0.06 mg a.i. per liter (ppm)
[9] = Example B3(a), 0.2 mg a.i. per liter (ppm)
[10] = Example B3(b), 0.2 mg a.i. per liter (ppm)
[11] = Example B9(a), 6 mg a.i. per liter (ppm)
[12] = Example B5, 2 mg a.i. per liter (ppm)
[13] = Example B5, 6 mg a.i. per liter (ppm)
[14] = Example B7, 2 mg a.i. per liter (ppm)
[15] = Example B7, 6 mg a.i. per liter (ppm)
[16] = Example B9(b), 0.02 mg a.i. per liter (ppm)
[17] = Example B9(b), 0.06 mg a.i. per liter (ppm)

Molecule: O=C(O)c1cccc2nnsc12 [compound IA, benzothiadiazole-7-carboxylic acid]
- % action O (found) (Erysiphe graminis; [5]): 0%
- % action O (found) (Erysiphe graminis; [6]): 40%
- % action O (found) (Erysiphe graminis; [7]): 89%
- % action O (found) (Erysiphe graminis; Example B2, 0.6 mg a.i. per liter (ppm)): 14%
- % action O (found) (Erysiphe graminis; Example B2, 2 mg a.i. per liter (ppm)): 27%
- % action O (found) [1, 8]: 0%
- % action O (found) [1, 9]: 5%
- % action O (found) ([1]; Example B3(a), 2 mg a.i. per liter (ppm)): 22%
- % action O (found) ([1]; Example B4, 0.2 mg a.i. per liter (ppm)): 3%
- % action O (found) ([1]; Example B4, 0.6 mg a.i. per liter (ppm)): 51%
- % action O (found) ([2]; Example B3(b), 0.006 mg a.i. per liter (ppm)): 0%
- % action O (found) ([2]; Example B3(b), 0.02 mg a.i. per liter (ppm)): 40%
- % action O (found) ([2]; Example B3(b), 0.06 mg a.i. per liter (ppm)): 49%
- % action O (found) [2, 10]: 91%

Molecule: CSC(=O)c1cccc2nnsc12 [compound ID, benzothiadiazole-7-carboxylic acid thiomethyl ester]
- % action O (found) ([3]; Example B10, 5 mg a.i. per liter (ppm)): 76%
- % action O (found) (Erysiphe graminis; Example B8, 0.6 mg a.i. per liter (ppm)): 0%
- % action O (found) (Erysiphe graminis; Example B8, 2 mg a.i. per liter (ppm)): 33%
- % action O (found) (Pyricularia oryzae; 6 mg a.i. per liter (ppm)): 15%
- % action O (found) ([1]; Example B9(a), 0.06 mg a.i. per liter (ppm)): 16%
- % action O (found) ([1]; Example B9(a), 0.2 mg a.i. per liter (ppm)): 22%
- % action O (found) [1, 11]: 60%
- Action on crop yield, % action O (found) ([4]; 5 mg a.i. per liter (ppm)): 459%
- % action O (found) (Cercospora nicotianae; Example B5, 0.2 mg a.i. per liter (ppm)): 0%
- % action O (found) (Cercospora nicotianae; [12]): 17%
- % action O (found) (Cercospora nicotianae; [13]): 55%
- % action O (found) (Cercospora nicotianae; Example B5, 20 mg a.i. per liter (ppm)): 78%
- % action O (found) (Cercospora nicotianae; Example B7, 0.2 mg a.i. per liter (ppm)): 0%
- % action O (found) (Cercospora nicotianae; [14]): 17%
- % action O (found) (Cercospora nicotianae; [15]): 55%
- % action O (found) (Cercospora nicotianae; Example B7, 20 mg a.i. per liter (ppm)): 78%
- % action O (found) ([2]; Example B9(b), 0.006 mg a.i. per liter (ppm)): 0%
- % action O (found) [2, 16]: 6%
- % action O (found) [2, 17]: 23%
- % action O (found) ([2]; Example B9(b), 0.2 mg a.i. per liter (ppm)): 36%

Molecule: CC(C)(C)C(O)(CCc1ccc(Cl)cc1)Cn1cncn1 (stereo not drawn) [compound IIA, α-[2-(4-chlorophenyl)ethyl]-α-(1,1-dimethylethyl)-1H-1,2,4-trazole-1-ethanol]
- % action O (found) (Cercospora nicotianae; [12]): 0%
- % action O (found) (Cercospora nicotianae; [13]): 0%

Molecule: CC(C1CC1)C(O)(Cn1cncn1)c1ccc(Cl)cc1 (stereo not drawn) [compound IIC, α-(4-chlorophenyl)-α-(1-cyclopropylethyl)-1H-1,2,4-triazole-1-ethanol]
- % action O (found) (Erysiphe graminis; Example B8, 6 mg a.i. per liter (ppm)): 17%
- % action O (found) (Erysiphe graminis; Example B8, 20 mg a.i. per liter (ppm)): 33%
- % action O (found) (Erysiphe graminis; Example B8, 60 mg a.i. per liter (ppm)): 50%
- % action O (found) (Cercospora nicotianae; [14]): 0%
- % action O (found) (Cercospora nicotianae; [15]): 0%

Molecule: CC1(C)CCC(Cc2ccc(Cl)cc2)C1(O)Cn1cncn1 (stereo not shown) [compound IID, 5-(4-chlorobenzyl)-2,2-dimethyl-1-(1H-1,2,4-triazol-1-ylmethyl)-cyclopentanol]
- % action O (found) (Erysiphe graminis; [5]): 10%
- % action O (found) (Erysiphe graminis; [6]): 40%
- % action O (found) (Erysiphe graminis; [7]): 51%
- % action O (found) (Erysiphe graminis; Example B1, 20 mg a.i. per liter (ppm)): 65%

Molecule: CO/C=C(/C(=O)OC)c1ccccc1Oc1cc(Oc2ccccc2C#N)ncn1 [compound IIF, methyl-(E)-2-{2-[6-(2-cyanophenoxy)pyrimidin4-yloxy]phenyl}-3-methoxyacrylate]
- % action O (found) [1, 8]: 5%
- % action O (found) [1, 9]: 9%
- % action O (found) ([1]; Example B3(a), 0.6 mg a.i. per liter (ppm)): 12%
- % action O (found) ([1]; Example B3(a), 6 mg a.i. per liter (ppm)): 17%
- % action O (found) ([1]; Example B9(a), 2 mg a.i. per liter (ppm)): 18%
- % action O (found) [1, 11]: 75%
- % action O (found) [2, 10]: 0%
- % action O (found) ([2]; Example B3(b), 0.6 mg a.i. per liter (ppm)): 9%
- % action O (found) ([2]; Example B3(b), 2 mg a.i. per liter (ppm)): 28%
- % action O (found) ([2]; Example B3(b), 6 mg a.i. per liter (ppm)): 66%
- % action O (found) [2, 16]: 1%
- % action O (found) [2, 17]: 5%
- % action O (found) ([2]; Example B9(b), 0.6 mg a.i. per liter (ppm)): 27%
- % action O (found) ([2]; Example B9(b), 2 mg a.i. per liter (ppm)): 61%
- % action O (found) ([2]; Example B9(b), 6 mg a.i. per liter (ppm)): 93%

Molecule: CO/N=C(/C(=O)OC)c1ccccc1COc1ccccc1C [compound IIG, methyl-(E)-2-methoximino-2-[α-(o-tolyloxy)-o-tolyl]acetate]
- % action O (found) ([1]; Example B4, 2 mg a.i. per liter (ppm)): 0%
- % action O (found) ([1]; Example B4, 20 mg a.i. per liter (ppm)): 41%

Molecule: CCC1(C(=O)NC(C)c2ccc(Cl)cc2)C(C)C1(Cl)Cl [compound IIK, (1R,3S/1S,3R)-2,2-dichloro-N-[(R)-1-(4-chlorophenyl)ethyl]-1-ethyl-3-methylcyclo-propanecarboxamide]
- % action O (found) (Pyricularia oryzae; 0.02 mg a.i. per liter (ppm)): 0%
- % action O (found) (Pyricularia oryzae; 0.06 mg a.i. per liter (ppm)): 28%
- % action O (found) (Pyricularia oryzae; 0.2 mg a.i. per liter (ppm)): 47%
- % action O (found) (Pyricularia oryzae; 0.6 mg a.i. per liter (ppm)): 79%
- % action O (found) (Pyricularia oryzae; 2 mg a.i. per liter (ppm)): 83%
- % action O (found) (Pyricularia oryzae; 6 mg a.i. per liter (ppm)): 91%

Molecule: manganese ethylenebis (dithiocarbamate) polymer-zinc complex [compound IIL]
- % action O (found) ([3]; Example B10, 100 mg a.i. per liter (ppm)): 8%
- Action on crop yield, % action O (found) ([4]; 100 mg a.i. per liter (ppm)): 8%
